This is an account of results in publication PMC5999327 (Organic letters, 2018).

The subject of assay [1] is Cal27 cells. In words: western blotting of α-tubulin and histone H3 acetylation in Cal27. Format: cell-based, human. The settings on record: western blot, Cal27, compared to control. For orientation: In western blotting, separated proteins are transferred to a membrane and probed.
Assay [2] has as its system Cal27 cells. The experiment in a line: MTT cytotoxicity assay. In kind it is cell-based. As to conditions: Homo sapiens, CAL-27, read-out: MTT (Cal27) IC50. On the technique in general: Tetrazolium assays rely on reduction of a dye to a coloured formazan, in cell work by metabolically active cells.
Assay [3] has as its system Cal27 cells. In words: whole cell HDAC assay with Boc-Lys. Format: cell-based. The settings on record: Homo sapiens, CAL-27, read-out: HDAC (Cal27) IC50.
The target in the next assay is HDAC1 (Homo sapiens, UniProt Q13547). The experiment in a line: biochemical HDAC assay with ZMAL substrate, HDAC1. The settings on record: read-out: HDAC1 IC50.
Sequence of HDAC1 (Q13547 whole entry): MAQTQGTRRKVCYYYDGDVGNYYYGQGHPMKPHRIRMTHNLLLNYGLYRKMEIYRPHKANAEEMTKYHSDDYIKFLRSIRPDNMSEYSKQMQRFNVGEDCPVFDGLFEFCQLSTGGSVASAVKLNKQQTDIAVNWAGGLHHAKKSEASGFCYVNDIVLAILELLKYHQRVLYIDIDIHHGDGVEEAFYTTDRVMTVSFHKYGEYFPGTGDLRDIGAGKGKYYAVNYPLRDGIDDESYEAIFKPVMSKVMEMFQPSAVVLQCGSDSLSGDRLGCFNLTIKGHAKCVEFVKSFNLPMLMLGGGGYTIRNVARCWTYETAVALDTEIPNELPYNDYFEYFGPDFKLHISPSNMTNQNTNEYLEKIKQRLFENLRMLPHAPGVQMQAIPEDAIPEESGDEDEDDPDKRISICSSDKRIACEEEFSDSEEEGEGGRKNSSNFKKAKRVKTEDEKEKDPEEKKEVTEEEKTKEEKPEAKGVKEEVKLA

For `CN1CCc2c(c3ccccc3n2Cc2ccc(C(=O)NO)cc2)C1` [Tubastatin A], the “acetylation of α-tubulin” value with Cal27 cells [1] was “preferential hyperacetylation of α-tubulin”. Also, the IC50 in the assay with Cal27 cells [2] is 5.34 µM; with Cal27 cells [3], 11.4 µM.

Take `O=C(NO)c1ccc(CC(=O)N(CCO)c2ccccc2)cc1` [HPOB]: the IC50 on HDAC1 came to 2.1 µM.

On to `O=C(CCCCCCC(=O)Nc1ccccc1)NO` [vorinostat], for which, in the assay with Cal27 cells [1], the “acetylation of histone H3” value is recorded as “increase in acetylation” and the “acetylation of α-tubulin” value is “increase in acetylation”.

Take `CCCCN(Cc1ccc(C(=O)NO)cc1)C(=O)Nc1ccccc1` [Nexturastat A]: the figures for the IC50 in the assay on Cal27 cells [2] and in the assay on Cal27 cells [3] were 7.75 µM and 5.87 µM, respectively.

The IC50 is the concentration that inhibits the measured activity by half.
